Measured values as given in patent US8629285B2, “Imidazole compounds that modulate HSP90 activity” (Synta Pharmaceuticals Corp., priority 2005, dated 2014).

System: Her2
Experiment: Degradation of Her2 in BT-474 cells (Method 1, SDS-PAGE/immunoblot)
Format: cell-based, Human
Details: 0.5 μM, overnight
Description: Human high-Her2 breast carcinoma BT474 (HTB-20), SK-BR-3 (HTB-30) and MCF-7 breast carcinoma (HTB-22) from American Type Culture Collection, VA, USA are grown in Dulbecco's modified Eagle's medium with 4 mM L-glutamine and antibiotics (100 IU/ml penicillin and 100 ug/ml streptomycine; GibcoBRL). To obtain exponential cell growth, cells are trypsinized, counted and seeded at a cell density of 0.5×10^6 cells/ml regularly, every 3 days. All experiments are performed on day 1 after cell passage.
BT-474 cells are treated with 0.5 μM, 2 μM, or 5 μM of 17AAG (a positive control) or 0.5 μM, 2 μM, or 5 μM of a compound of the invention overnight in DMEM medium. After treatment, each cytoplasmic sample is prepared from 1×10^6 cells by incubation of cell lysis buffer (#9803, cell Signaling Technology) on ice for 10 minutes. The resulting supernatant used as the cytosol fractions is dissolved with sample buffer for SDS-PAGE and run on a SDS-PAGE gel, blotted onto a nitrocellulose membrane by using semi-dry transfer. Non-specific binding to nitrocellulose is blocked with 5% skim milk in TBS with 0.5% Tween at room temperature for 1 hour, then probed with anti-Her2/ErB2 mAb (rabbit IgG, #2242, Cell Signaling) and anti-Tubulin (T9026, Sigma) as housekeeping control protein. […]

## C=CCNC1=C2C[C@@H](C)C[C@H](OC)[C@H](O)[C@@H](C)/C=C(\C)[C@H](OC(N)=O)[C@@H](OC)/C=C\C=C(/C)C(=O)NC(=CC1=O)C2=O [17AAG]
  degradation of Her2: partial degradation
